The target of one assay is ACC1 (Homo sapiens (Human), UniProt Q13085). Briefly: In vitro ACC inhibition assay (ADP-Glo), ACC1. The assay is classed as biochemical. How it is done: (§1) Compounds of the present invention were evaluated in an in vitro ACC inhibition assay as described by Harwood, et al, 2003, the entirety of which is incorporated herein by reference.
(§2) In Vitro Acetyl-CoA Carboxylase (ACC) Inhibition Assay
(§3) An exemplary procedure for the in vitro ACC inhibition assay, which can be used to determine the inhibitory action of compounds of the invention toward either ACC1 or ACC2, follows. The ADP-Glo™ Kinase Assay kit from Promega was used. The ADP-Glo™ Kinase Assay is a luminescent ADP detection assay to measure enzymatic activity by quantifying the amount of ADP produced during an enzyme reaction. The assay is performed in two steps; first, after the enzyme reaction, an equal volume of ADP-Glo™ Reagent is added to terminate the reaction and deplete the remaining ATP. Second, the Kinase Detection Reagent is added to simultaneously convert ADP to ATP and allow the newly synthesized ATP to be measured using a luciferase/luciferin reaction. Luminescence can be correlated to ADP concentrations by using an ATP-to-ADP conversion curve. The detailed procedure is as follows. 50 μL of the compound being tested (600 uM in DMSO) was added to a 384-well dilution plate. The compound was diluted 1:3 in succession in DMSO for each row for 11 wells. 0.5 μL ACC2 working solution was added to 384-well white Optiplate assay plate. 0.5 μL diluted compound solution in each column from step 2 to assay plate, each row containing 2 replicates. […] The plates were incubated at room temperature for 15 minutes. 5 μL substrate working solution was added to each well to initiate reaction. Final ACC2 reaction concentrations consist of: 5 nM ACC2, 20 μM ATP, 20 μM acetyl-CoA, 12 mM NaHCO3, 0.01% Brij35, 2 mM DTT, 5% DMSO, test compound concentrations: 30 μM, 10 μM, 3.33 μM, 1.11 μM, 0.37 μM, 0.123 μM, 0.0411 μM, 0.0137 μM, 0.00457 μM, 0.00152 μM, and 0.00051 μM. Plates were incubated at room temperature for 60 minutes. 10 μL ADP glo reagent was added. Plates were incubated at room temperature for 40 minutes. 20 μL kinase detection reagent was added. Plates were incubated at room temperature for 40 minutes, then read on a Perkin Elmer EnVision 2104 plate reader for luminescence as Relative Light Units (RLU).
(§4) Data for each concentration, as well as the positive and negative controls were averaged, and the standard deviation calculated. Percent inhibition was calculated by the formula: 100×(average negative control-compound)/(average negative control-average positive control). The IC50 for each compound was calculated by fitting the data with a non-linear regress ion equation: Y=Bottom+(Top−Bottom)/(1+10((Log IC50−X* HillSlope)), where X is the log of compound concentration and Y is percent inhibition.

A further assay has as its target ACC2 (Homo sapiens (Human), UniProt O00763). The experiment in a line: In vitro ACC inhibition assay (ADP-Glo), ACC2. The assay is classed as biochemical. How it is done:
as §1, §2, §3, §4

The next assay has as its system HepG2. The experiment in a line: EC50 in HepG2. The assay is classed as cell-based.
[1] abbreviates: 5 nM ACC2, 20 μM ATP, 20 μM acetyl-CoA, read-out: IC50 (μM) ACC2.
Setting [2] is: ND630 versus RJ compounds, isoform not given, read-out: IC50 (μM) ND630/RJ-cmps(%).
Setting [3] is: HepG2, read-out: EC50 (μM) HepG2.
Where [4] appears, read: ND630 versus RJ compounds, read-out: EC50 (μM) ND630/RJ-cmps(%).

The structures appear in SMILES notation. Read-outs that look alike come from different tables or passages of the source.

Sequence of ACC2 (O00763 whole entry, species assumed): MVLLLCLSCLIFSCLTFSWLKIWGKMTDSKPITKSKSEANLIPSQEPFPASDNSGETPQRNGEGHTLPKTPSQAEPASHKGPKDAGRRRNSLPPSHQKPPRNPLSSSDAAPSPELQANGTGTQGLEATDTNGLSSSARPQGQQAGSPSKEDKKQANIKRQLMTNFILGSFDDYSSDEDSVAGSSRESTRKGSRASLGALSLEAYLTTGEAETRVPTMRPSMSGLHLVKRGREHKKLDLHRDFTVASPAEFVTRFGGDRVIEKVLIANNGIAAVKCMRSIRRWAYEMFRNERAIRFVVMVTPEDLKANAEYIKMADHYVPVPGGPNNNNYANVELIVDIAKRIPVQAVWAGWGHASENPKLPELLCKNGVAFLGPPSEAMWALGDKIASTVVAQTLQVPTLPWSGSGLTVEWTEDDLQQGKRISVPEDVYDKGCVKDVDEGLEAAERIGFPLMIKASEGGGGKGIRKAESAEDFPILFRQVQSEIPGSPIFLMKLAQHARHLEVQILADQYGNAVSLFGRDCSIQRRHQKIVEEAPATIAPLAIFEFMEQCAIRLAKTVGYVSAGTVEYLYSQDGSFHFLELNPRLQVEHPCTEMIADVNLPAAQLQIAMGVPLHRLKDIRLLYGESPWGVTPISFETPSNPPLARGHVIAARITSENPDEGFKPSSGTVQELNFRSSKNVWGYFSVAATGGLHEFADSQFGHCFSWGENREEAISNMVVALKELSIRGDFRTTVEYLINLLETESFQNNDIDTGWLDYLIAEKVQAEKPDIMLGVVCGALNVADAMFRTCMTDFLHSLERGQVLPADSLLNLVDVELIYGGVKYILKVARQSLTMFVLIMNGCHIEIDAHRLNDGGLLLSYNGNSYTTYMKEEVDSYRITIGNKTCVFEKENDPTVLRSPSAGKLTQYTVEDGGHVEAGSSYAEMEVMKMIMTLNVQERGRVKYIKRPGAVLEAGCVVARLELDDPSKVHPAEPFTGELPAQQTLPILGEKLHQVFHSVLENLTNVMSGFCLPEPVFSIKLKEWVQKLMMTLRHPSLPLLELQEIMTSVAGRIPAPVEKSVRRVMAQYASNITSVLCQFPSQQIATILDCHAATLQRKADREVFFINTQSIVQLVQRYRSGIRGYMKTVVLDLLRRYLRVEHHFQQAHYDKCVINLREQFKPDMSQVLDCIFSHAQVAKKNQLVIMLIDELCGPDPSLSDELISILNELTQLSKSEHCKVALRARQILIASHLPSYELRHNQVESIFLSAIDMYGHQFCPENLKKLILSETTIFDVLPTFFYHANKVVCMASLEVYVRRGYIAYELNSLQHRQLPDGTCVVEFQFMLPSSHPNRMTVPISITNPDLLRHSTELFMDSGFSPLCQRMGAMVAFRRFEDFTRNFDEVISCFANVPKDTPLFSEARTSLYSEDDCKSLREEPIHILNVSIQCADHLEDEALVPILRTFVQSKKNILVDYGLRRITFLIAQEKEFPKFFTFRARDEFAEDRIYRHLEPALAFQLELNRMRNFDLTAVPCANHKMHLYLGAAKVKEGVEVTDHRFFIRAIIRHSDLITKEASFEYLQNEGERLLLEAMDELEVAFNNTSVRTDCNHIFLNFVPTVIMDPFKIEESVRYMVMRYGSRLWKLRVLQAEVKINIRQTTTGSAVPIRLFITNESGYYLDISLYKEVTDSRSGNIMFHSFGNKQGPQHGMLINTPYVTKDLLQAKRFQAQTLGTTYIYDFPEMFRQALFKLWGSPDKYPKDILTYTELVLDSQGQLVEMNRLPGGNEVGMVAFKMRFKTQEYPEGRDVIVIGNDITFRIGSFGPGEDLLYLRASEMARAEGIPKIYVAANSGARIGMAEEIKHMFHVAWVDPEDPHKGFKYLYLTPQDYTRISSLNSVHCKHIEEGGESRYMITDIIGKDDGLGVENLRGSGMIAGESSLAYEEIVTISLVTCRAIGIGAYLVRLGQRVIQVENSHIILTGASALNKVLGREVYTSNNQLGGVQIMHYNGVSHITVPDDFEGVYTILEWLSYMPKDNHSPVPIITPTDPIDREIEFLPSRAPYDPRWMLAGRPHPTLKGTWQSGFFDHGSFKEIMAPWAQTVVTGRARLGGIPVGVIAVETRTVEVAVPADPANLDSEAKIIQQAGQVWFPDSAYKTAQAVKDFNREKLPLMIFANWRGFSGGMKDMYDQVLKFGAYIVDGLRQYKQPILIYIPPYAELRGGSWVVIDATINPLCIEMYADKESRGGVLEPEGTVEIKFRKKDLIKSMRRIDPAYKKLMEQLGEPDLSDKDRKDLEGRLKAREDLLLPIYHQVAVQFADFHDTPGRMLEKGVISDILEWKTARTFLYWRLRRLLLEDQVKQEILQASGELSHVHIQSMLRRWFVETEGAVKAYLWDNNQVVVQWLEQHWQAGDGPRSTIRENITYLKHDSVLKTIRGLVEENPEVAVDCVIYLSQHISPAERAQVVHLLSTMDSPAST

With `CNC(=O)C1(n2c(=O)c3c(C)c(-c4ncco4)sc3n(CC(OC3CCOCC3)c3ccccc3OC)c2=O)CCC1` (stereo not drawn) [Example 53], the IC50 is 0.001 to 0.01 µM on ACC1, less than 0.01 µM on ACC2 (setting [1]) and 0.003 to 0.005 µM on ACC2 (setting [2]). The EC50 was 0.01 to 0.1 µM with HepG2 (setting [3]) and greater than 1 µM with HepG2 (setting [4]).

In the case of `CNC(=O)CC1(n2c(=O)c3c(C)c(-c4ncco4)sc3n(C[C@H](OC3CCOCC3)c3ccccc3OC)c2=O)CC1` [Example 63], the IC50 at ACC1 was 0.001 to 0.01 µM; at ACC2 (setting [1]) it was 0.01 to 0.1 µM. The EC50 in the assay with HepG2 (setting [3]) was 0.01 to 0.1 µM; with HepG2 (setting [4]), greater than 1 µM.

Turning to `COc1ccccc1[C@H](Cn1c(=O)n(C2(C(N)=O)CC2)c(=O)c2c(C)c(Br)sc21)OC1CCOCC1` [Example 58], the IC50 against ACC1 was 0.01 to 0.05 µM; on ACC2 (setting [1]), 0.01 to 0.1 µM; on ACC2 (setting [2]), greater than 0.01 µM. In addition, in the assay with HepG2 (setting [3]), the EC50 was greater than 1 µM.

Take `CNC(=O)C1(n2c(=O)c3c(C)c(-c4ncco4)sc3n(CC(OC3CCOCC3)c3ccccc3OC)c2=O)CC1` (stereo not drawn) [Example 47]: the results for the IC50 on ACC1, at ACC2 (setting [1]) and on ACC2 (setting [2]) were 0.001 to 0.01 µM, 0.01 to 0.1 µM and 0.005 to 0.01 µM, respectively. The values for the EC50 with HepG2 (setting [3]) and with HepG2 (setting [4]) were 0.01 to 0.1 µM and greater than 1 µM, respectively.

Turning to `COc1ccccc1C(Cn1c(=O)n(C2(C(N)=O)CCCC2)c(=O)c2c(C)c(-c3ncco3)sc21)OC1CCOCC1` (stereo not drawn) [Example 43], the IC50 against ACC1 is 0.001 to 0.01 µM; at ACC2 (setting [1]) it was less than 0.01 µM; at ACC2 (setting [2]), 0.005 to 0.01 µM. In addition, the EC50 was less than 0.01 µM in the assay on HepG2 (setting [3]) and greater than 1 µM with HepG2 (setting [4]).

On to `COc1ccccc1[C@H](Cn1c(=O)n(C2CCC2C(=O)O)c(=O)c2c(C)c(-c3ncco3)sc21)OC1CCOCC1` (stereo partly drawn) [Example 69], for which the IC50 against ACC1 was less than 0.001 µM; on ACC2 (setting [1]) it was less than 0.01 µM; on ACC2 (setting [2]), greater than 0.01 µM. Further, the results for the EC50 in the assay with HepG2 (setting [3]) and with HepG2 (setting [4]) were less than 0.01 µM and greater than 1 µM, respectively.

Regarding `COc1ccccc1[C@H](Cn1c(=O)n(C2(CC(N)=O)CC2)c(=O)c2c(C)c(-c3ncco3)sc21)OC1CCOCC1` [Example 64], the results for the IC50 against ACC1 and on ACC2 (setting [1]) were 0.001 to 0.01 µM and less than 0.01 µM, respectively. Further, the values for the EC50 in the assay with HepG2 (setting [3]) and in the assay on HepG2 (setting [4]) were less than 0.01 µM and greater than 1 µM, respectively.

`COc1ccccc1[C@H](Cn1c(=O)n(C2(CC(=O)O)CC2)c(=O)c2c(C)c(-c3ncco3)sc21)OC1CCOCC1` [Example 61]: the IC50 against ACC1 was 0.01 to 0.05 µM; at ACC2 (setting [1]), less than 0.01 µM. In addition, the EC50 in the assay on HepG2 (setting [3]) was 0.1 to 1 µM; with HepG2 (setting [4]), greater than 1 µM.

Take `CNC(=O)C1(n2c(=O)c3c(C)c(-c4ncco4)sc3n(CC(OC3CCOCC3)c3ccccc3OC)c2=O)CCCC1` (stereo not drawn) [Example 44]: the IC50 lay in the range of 0.001 to 0.01 µM at ACC1, 0.01 to 0.1 µM on ACC2 (setting [1]) and 0.005 to 0.01 µM at ACC2 (setting [2]). For the same compound, the EC50 was less than 0.01 µM in the assay on HepG2 (setting [3]) and greater than 1 µM in the assay with HepG2 (setting [4]).

Take `COc1ccccc1C(Cn1c(=O)n(C2(C(N)=O)CCC2)c(=O)c2c(C)c(-c3ncco3)sc21)OC1CCOCC1` (stereo not drawn) [Example 54]: the IC50 fell in the range of 0.001 to 0.01 µM against ACC1, 0.01 to 0.1 µM at ACC2 (setting [1]) and 0.005 to 0.01 µM at ACC2 (setting [2]). In addition, the EC50 was less than 0.01 µM in the assay on HepG2 (setting [3]) and greater than 1 µM in the assay on HepG2 (setting [4]).

With `COc1ccccc1[C@H](Cn1c(=O)n(C2(C(=O)O)CCCC2)c(=O)c2c(C)c(-n3nccn3)sc21)OC1CCOCC1` [Example 55], the values for the IC50 at ACC1, at ACC2 (setting [1]) and on ACC2 (setting [2]) were less than 0.001 µM, less than 0.01 µM and 0.005 to 0.01 µM, respectively. Besides, the EC50 in the assay with HepG2 (setting [3]) was less than 0.01 µM; with HepG2 (setting [4]), greater than 1 µM.

Take `COc1ccccc1[C@H](Cn1c(=O)n(C2(CC(N)=O)CC2)c(=O)c2c(C)c(Br)sc21)OC1CCOCC1` [Example 60]: the values for the IC50 at ACC1, at ACC2 (setting [1]) and on ACC2 (setting [2]) were 0.01 to 0.05 µM, 0.01 to 0.1 µM and greater than 0.01 µM, respectively.

As to `COc1ccccc1[C@H](Cn1c(=O)n(C2(CC(=O)O)CC2)c(=O)c2c(C)c(Br)sc21)OC1CCOCC1` [Example 59], the values for the IC50 at ACC1, on ACC2 (setting [1]) and at ACC2 (setting [2]) were 0.01 to 0.05 µM, 0.01 to 0.1 µM and greater than 0.01 µM, respectively.

The values above are taken from patent US10995099B2, “Compounds and their uses as ACC inhibitors” (NANJING RUIJIE PHARMATECH CO., LTD., priority 2017, dated 2021).
